Data from patent US20050282814A1, “Vasculostatic agents and methods of use thereof” (TargeGen, Inc., priority 2002, published 2005).
Structures can show the parent of a compound that is named as a salt.

Key:
cerebral stroke = test: Cerebral stroke model, permanent middle cerebral artery occlusion; format: in vivo, mice; conditions: 1 mg/kg BW IV 60 min after ligation, 24 hours
Method: A rodent model of cerebral stroke, in which the middle cerebral artery is permanently occluded, was used to determine whether test agents reduced infarct size at 24 hours.
Cerebral strokes were created in mice by permanent ligation of the middle cerebral artery using a cauterizing tool, followed 60 min later by IV injection of either vehicle alone (50% PEG400 in water) or test agents (at 1 mg/kg BW). Twenty four hours later, brains were sectioned and stained using triphenyltetrazolium chloride to delineate viable from infarcted tissue. Photographic images were then analyzed using morphometric software to calculate infarct area.

angiogenesis = test: Matrigel plug angiogenesis model (bFGF or VEGF), FITC-lectin; format: in vivo, Athymic WeHi (nu/nu) mice; conditions: 10 mg/kg i.p. bid for four days; matrigel with bFGF or VEGF
Method: FIGS. 13 and 14 illustrate the effects of invention compounds for their capacity to inhibit angiogenesis in vivo. […] Tumor extracellular matrix infused with the 160 ng of the described growth factors were injected subcutaneously in a Balb/C mouse. The described invention compound was injected daily at the described concentration for 5 days. After 5 days the animals were sacrificed and angiogenesis quantified based on the binding of fluorescently labeled, endothelium specific FITC-lectin. In the graph, compound A is 6,7-bis(4-hydroxyphenyl)-pteridin-4-ylamine sulfate salt.
Referring to FIGS. 13 and 14, a murine model of angiogenesis was used to screen compounds for their capacity to inhibit angiogenesis. […] In the graph, compound A is 6,7-bis(4-hydroxyphenyl)-pteridin-4-ylamine sulfate salt. Athymic WeHi (nu/nu) mice were first injected with 400 lls of an ice-cold tumor-derived extracellular matrix substrate, matrigel (Becton-Dickinson) infused with 400 ng/ml of bFGF or VEGF (R&D Systems) which rapidly solidifies into a subdermal plug at body temperature. Mice were subsequently injected intaperitoneally with 10 mg/kg of the indicated compounds bid for four days. […] Twenty minutes after injection of the lectin, mice were euthanized, matrigel plugs were then extracted, solublized in PBS with mechanical grinding and the fluorescent content of individual plugs was quantified. […]

[1] = system: Lewis lung carcinoma cells; test: Lewis lung carcinoma lung metastases model, alone or with doxorubicin; format: in vivo, Balb/C mice; conditions: I.P. every 3 days for 3 cycles
Method: (§1) Syngeneic Lewis lung carcinoma cells were injected I.V. in order to establish lung metastases in Balb/C mice. Beginning 10 days after cells were injected, doxorubicin (3 mg/kg) and/or 6,7-bis(4-hydroxyphenyl)-pteridin-4-ylamine, sulfate salt (various doses as shown) was given I.P. every 3 days for 3 cycles. Animals were sacrificed at day 20, lungs were collected, and weighed. Net tumor burden is the weight of tumor-bearing lungs minus the average weight of normal control lungs. N=5/group, p<0.02.
as §1, with “The following experiments show the use of vasculostatic agents of the invention alone and in combination with chemotherapeutic agents for treatment of cancer. […] In the experiment shown in FIG. 2, syngeneic” for “Syngeneic”, “mgikg)” for “mg/kg)”, “salt, (compound A—various” for “salt (various”

[2] = system: edema formation induced using histamine as an agonist; test: Miles assay with histamine as agonist; format: in vivo, Sprague-Dawley rats; conditions: 1.5 mg/kg; histamine 10 μg/injection site; vehicle 12
Method: Sprague-Dawley rats were first injected IV with vehicle alone or test agent, followed by IV injection of Evans blue dye, followed by intradermal injections of saline and VEGF (200 ng/injection site) along both shaved flanks. After 45 min, intradermal injection sites were photographed and then scored by a blinded observer for extravasation of Evans blue dye into the dermis (dermal bluing) according to a 4 point scoring system (3=maximal bluing, ≧75% of response in vehicle-treated animals; 2=medium bluing, >25% but <75% of vehicle-treated animals; 1=minimal bluing, ≦25% of vehicle-treated animals; 0=bluing equivalent to saline injection sites on same animal). Individual scores for 4 injection sites (from 2 separate animals) were summed and are shown as a scale of 0-12, with a lower score indicating the greater anti-edema activity; note that all vehicle-treated groups score a value of 12, based on the scoring system outlined above.
The ability of test agents to influence edema induced by agonists other than VEGF was also tested. Compounds cited in this application inhibited edema formation induced using histamine as an agonist, for example, as shown below.
The ability of test agent to influence vascular edema was tested as above, except that the ability to block edema was tested using either VEGF or histamine as the agonist (200 ng and 10 μg/injection site, respectively).

acute myocardial infarct = test: Rat acute myocardial infarct model (60 min LAD occlusion, reperfusion); format: in vivo, Sprague-Dawley rats; conditions: 1.5 mg/kg IV at 90 min post-reperfusion, 24 hr
Method: A rodent model of acute myocardial infarct, in which the proximal left anterior descending coronary artery (LAD) is occluded for 60 min followed by reperfusion, was used to determine whether test agents reduced infarct size at 24 hours.
Myocardial infarcts were created in Sprague-Dawley rats (200-300 g body weight) by a 60 min occlusion of the LAD followed by LAD reperfusion. At 90 min post-reperfusion, either vehicle alone or test agents were injected IV. At 24 hr post-treatment, the ischemic zone (area at-risk, AAR) was delineated by re-ligation of the LAD followed by IV injection of alkali blue dye, after which hearts were sectioned along the short axis and stained using triphenyltetrazolium chloride to delineate viable from infarcted myocardium. Photographic images were then analyzed using morphometric software to calculate infarct area as a percent of the at-risk area.
The following studies were performed as described above, except that the timing of 3-[2,4-diamino-6-(3-hydroxyphenyl)pteridin-7-yl] phenol dihydrochloride salt administration (at 0.1 mg/kg) was varied. In one group, 3-[2,4-diamino-6-(3-hydroxyphenyl)pteridin-7-yl] phenol dihydrochloride salt was administered at both 60 and 240 min post-occlusion.
In a porcine MI model (90 min of LAD occlusion followed by complete reperfusion), a single 0.3 mg/kg IV bolus delivered 30 min post-reperfusion reduced infarct size by […] vs. controls (40% vs. 56%, N=12-13, P=0.03).

## Nc1ncnc2nc(-c3ccc(O)cc3)c(-c3ccc(O)cc3)nc12 [compound A, 6,7-bis(4-hydroxyphenyl)-pteridin-4-ylamine sulfate salt]
Cerebral stroke
  Infarct area in mm^3 (mean ± SEM): 18.3 ± 2.6 mm^3
Cerebral stroke; vs vehicle
  % Infarct reduction: 53%
angiogenesis
  inhibition of angiogenesis in vivo: successfully inhibited angiogenesis in vivo
[1]; lungs weighed at day 20
  reduction of tumor burden as a stand alone agent: 25%
[1]; doxorubicin 3 mg/kg, day 20
  reduction of tumor burden in combination with doxorubicin: greater than 90%
[2]
  Score with histamine as agonist (scale of 0-12): 3
Acute myocardial infarct
  Infarct (% AAR, mean ± SEM): 60.6 ± 1.8 % AAR
Acute myocardial infarct; vs vehicle
  % Infarct reduction: 20%
